Data taken from ChEMBL document CHEMBL1201862, “PubChem BioAssay data set” (2004).
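Test compounds were applied to cells in 96-well plates for 48 hours at 5 doses. At the GI50, growth is halved.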 Activity calls are given as the source filed them. Cut-off read from the data, not from the text of the source: active = GI50 up to about 1.1 µM and inactive = higher.

Tests used:
Test in all cases: NCI anticancer screen, dose series, 48 h
[1] = system: PC-3
[2] = system: T47D
[3] = system: NCI/ADR-RES
[4] = system: NCI-H23
[5] = system: SNB-19
[6] = system: SK-MEL-2
[7] = system: OVCAR-3
[8] = system: RXF 393
[9] = system: SK-MEL-5
[10] = system: UACC-62
[11] = system: OVCAR-8
[12] = system: COLO 205
[13] = system: MCF7
[14] = system: K562
[15] = system: IGROV-1
[16] = system: MDA-MB-231
[17] = system: HL-60
[18] = system: MOLT-4
[19] = system: U-251
[20] = system: KM12
[21] = system: CCRF-CEM
[22] = system: HOP-92
[23] = system: 786-0
[24] = system: M14
[25] = system: NCI-H460
[26] = system: UACC-257
[27] = system: SK-OV-3
[28] = system: HCT-116
[29] = system: DU-145
[30] = system: EKVX
[31] = system: OVCAR-5
[32] = system: HCT-15
[33] = system: RPMI-8226
[34] = system: SR
[35] = system: CAKI-1
[36] = system: SF-268
[37] = system: A498
[38] = system: SK-MEL-28
[39] = system: SW-620
[40] = system: MDA-MB-435
[41] = system: UO-31
[42] = system: OVCAR-4
[43] = system: HOP-62
[44] = system: NCI-H226
[45] = system: ACHN
[46] = system: A549
[47] = system: LOX IMVI
[48] = system: SF-295
[49] = system: HCC 2998
[50] = system: SF-539
[51] = system: Hs-578T
[52] = system: TK-10
[53] = system: NCI-H522
[54] = system: Malme-3M
[55] = system: HT-29
[56] = system: SNB-75
[57] = system: MDA-N
[58] = system: SN12C

With `CC(=O)OCC(=O)[C@@]1(O)CC[C@H]2[C@@H]3CCC4=CC(=O)C=C[C@]4(C)[C@@]3(F)[C@@H](O)C[C@@]21C` [ISOFLUPREDONE ACETATE] the GI50 [1] was 65.3 µM (inactive).
With `CCC(CCCC[C@@H]1CC[C@H]2CC(=O)C[C@@H]12)OC` (stereo not given in full) the GI50 [1] was > 100 µM (inactive), the GI50 [2] was > 100 µM (inactive) and the GI50 [3] was 76.6 µM (inactive). The GI50 [4] was 91.6 µM (inactive), the GI50 [5] was > 100 µM (inactive) and the GI50 [6] was > 100 µM (inactive). The GI50 [7] was > 100 µM (inactive), the GI50 [8] was > 100 µM (inactive) and the GI50 [9] was 73.5 µM (inactive). For the same compound, the GI50 [10] was > 100 µM (inactive), the GI50 [11] was > 100 µM (inactive) and the GI50 [12] was > 100 µM (inactive). For the same compound, the GI50 [13] was > 100 µM (inactive), the GI50 [14] was 36.7 µM (inactive) and the GI50 [15] was > 100 µM (inactive). The GI50 [16] was > 100 µM (inactive), the GI50 [17] was 49.5 µM (inactive) and the GI50 [18] was > 100 µM (inactive). For the same compound, the GI50 [19] was > 100 µM (inactive), the GI50 [20] was > 100 µM (inactive) and the GI50 [21] was > 100 µM (inactive). For the same compound, the GI50 [22] was > 100 µM (inactive), the GI50 [23] was > 100 µM (inactive) and the GI50 [24] was > 100 µM (inactive). The GI50 [25] was > 100 µM (inactive), the GI50 [26] was 56.6 µM (inactive) and the GI50 [27] was > 100 µM (inactive). The GI50 [28] was > 100 µM (inactive), the GI50 [29] was > 100 µM (inactive) and the GI50 [30] was > 100 µM (inactive).
For `CCOC(=O)N1CCC2(CC1)C[C@](C)(C(C)=O)C(C)O2` (stereo not given in full), the GI50 [31] was > 100 µM (inactive), the GI50 [32] was > 100 µM and the GI50 [33] was > 100 µM (inactive). The GI50 [1] was > 100 µM (inactive), the GI50 [34] was > 100 µM (inactive) and the GI50 [35] was > 100 µM (inactive). For the same compound, the GI50 [36] was > 100 µM (inactive), the GI50 [37] was > 100 µM (inactive) and the GI50 [38] was > 100 µM (inactive). For the same compound, the GI50 [3] was > 100 µM (inactive), the GI50 [4] was > 100 µM (inactive) and the GI50 [5] was > 100 µM (inactive). The GI50 [6] was > 100 µM (inactive), the GI50 [39] was > 100 µM (inactive) and the GI50 [7] was > 100 µM (inactive). For the same compound, the GI50 [9] was > 100 µM (inactive), the GI50 [10] was > 100 µM (inactive) and the GI50 [40] was > 100 µM (inactive). For the same compound, the GI50 [41] was > 100 µM (inactive), the GI50 [42] was > 100 µM (inactive) and the GI50 [11] was > 100 µM (inactive). For the same compound, the GI50 [12] was > 100 µM (inactive), the GI50 [43] was > 100 µM (inactive) and the GI50 [44] was > 100 µM (inactive). For the same compound, the GI50 [13] was > 100 µM (inactive), the GI50 [45] was > 100 µM (inactive) and the GI50 [14] was > 100 µM (inactive). For the same compound, the GI50 [46] was > 100 µM (inactive), the GI50 [47] was > 100 µM (inactive) and the GI50 [15] was > 100 µM (inactive). The GI50 [48] was > 100 µM (inactive), the GI50 [49] was > 100 µM (inactive) and the GI50 [16] was > 100 µM (inactive). For the same compound, the GI50 [17] was 2.81 µM (inactive), the GI50 [50] was > 100 µM (inactive) and the GI50 [51] was > 100 µM (inactive). The GI50 [18] was > 100 µM (inactive), the GI50 [19] was > 100 µM (inactive) and the GI50 [20] was > 100 µM (inactive). The GI50 [22] was > 100 µM (inactive), the GI50 [23] was > 100 µM (inactive) and the GI50 [24] was > 100 µM (inactive). For the same compound, the GI50 [25] was > 100 µM (inactive), the GI50 [52] was > 100 µM (inactive) and the GI50 [26] was > 100 µM (inactive). The GI50 [27] was > 100 µM (inactive), the GI50 [53] was > 100 µM (inactive) and the GI50 [54] was > 100 µM (inactive). The GI50 [55] was > 100 µM (inactive) and the GI50 [30] was > 100 µM (inactive).
For `CC(C)(Oc1ccc2c(=O)cc(-c3ccccc3)oc2c1)C(=O)N1CCN(c2ccccc2)CC1`, the GI50 [32] was 4.55 µM, the GI50 [33] was 2.52 µM (inactive) and the GI50 [1] was 3.05 µM (inactive). For the same compound, the GI50 [2] was 3.2 µM (inactive), the GI50 [34] was 2.49 µM (inactive) and the GI50 [35] was 3.7 µM (inactive). The GI50 [36] was 4.16 µM (inactive), the GI50 [38] was 6.81 µM (inactive) and the GI50 [4] was 3.24 µM (inactive). The GI50 [39] was 6.64 µM (inactive), the GI50 [8] was 1.47 µM (inactive) and the GI50 [9] was 4.54 µM (inactive). The GI50 [10] was 3.71 µM (inactive), the GI50 [56] was 4.76 µM (inactive) and the GI50 [11] was 5.57 µM (inactive). For the same compound, the GI50 [43] was 5.55 µM (inactive), the GI50 [13] was 3.23 µM (inactive) and the GI50 [14] was 3.17 µM (inactive). For the same compound, the GI50 [46] was 4.95 µM (inactive), the GI50 [47] was 5.5 µM (inactive) and the GI50 [57] was 3.41 µM (inactive). The GI50 [15] was > 10 µM (inactive), the GI50 [48] was 4.71 µM (inactive) and the GI50 [49] was 5.94 µM (inactive). The GI50 [16] was 6.46 µM (inactive), the GI50 [17] was 1.62 µM (inactive) and the GI50 [18] was 2.6 µM (inactive). For the same compound, the GI50 [20] was 3.42 µM (inactive), the GI50 [21] was 3.15 µM (inactive) and the GI50 [23] was 5.89 µM (inactive). For the same compound, the GI50 [24] was 3.64 µM (inactive), the GI50 [52] was 8.17 µM (inactive) and the GI50 [26] was 3.56 µM (inactive). The GI50 [27] was > 10 µM (inactive), the GI50 [58] was 5.74 µM (inactive) and the GI50 [29] was 6.12 µM (inactive). For the same compound, the GI50 [54] was 4.84 µM (inactive), the GI50 [55] was 4.08 µM (inactive) and the GI50 [30] was 5.28 µM (inactive).
